Experimental data from the supplement of paper PMC10307832.

Key:
Assay in all cases: relative viability (nuclei count vs DMSO), 5 days (fraction); higher = more cells survive
Gemcitabine + Lapatinib = compound: Nc1ccn([C@@H]2O[C@H](CO)[C@@H](O)C2(F)F)c(=O)n1 [Gemcitabine] + CS(=O)(=O)CCNCc1ccc(-c2ccc3ncnc(Nc4ccc(OCc5cccc(F)c5)c(Cl)c4)c3c2)o1 [Lapatinib] (partner 2 µM)
Procedure, shortened: (§1)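 Lung cancer cell lines in 1536-well plates got either a single drug or a fixed anchor-drug dose together with five library-drug doses (not always all listed) in √10 steps, by pin tool, on the day after seeding. Nuclei were counted after 5 days, and relative viability is the treated-to-vehicle ratio of nuclei counts. Values are medians of duplicate plates.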

Gemcitabine + Crizotinib = compound: Nc1ccn([C@@H]2O[C@H](CO)[C@@H](O)C2(F)F)c(=O)n1 [Gemcitabine] + C[C@@H](Oc1cc(-c2cnn(C3CCNCC3)c2)cnc1N)c1c(Cl)ccc(F)c1Cl [Crizotinib] (partner 1 µM)
Procedure, shortened: as §1

Gemcitabine + Dasatinib = compound: Nc1ccn([C@@H]2O[C@H](CO)[C@@H](O)C2(F)F)c(=O)n1 [Gemcitabine] + Cc1nc(Nc2ncc(C(=O)Nc3c(C)cccc3Cl)s2)cc(N2CCN(CCO)CC2)n1 [Dasatinib] (partner 0.075 µM)
Procedure, shortened: as §1

Gemcitabine + Pemetrexed = compound: Nc1ccn([C@@H]2O[C@H](CO)[C@@H](O)C2(F)F)c(=O)n1 [Gemcitabine] + Nc1nc2[nH]cc(CCc3ccc(C(=O)N[C@@H](CCC(=O)O)C(=O)O)cc3)c2c(=O)[nH]1 [Pemetrexed] (partner 0.2 µM)
Procedure, shortened: as §1

Row | Cell Line | relative viability (Gemcitabine + Lapatinib; first compound 0.001 µM) | relative viability (Gemcitabine + Lapatinib; first compound 0.003162 µM) | relative viability (Gemcitabine + Lapatinib; first compound 0.01 µM) | relative viability (Gemcitabine + Lapatinib; first compound 0.03162 µM) | relative viability (Gemcitabine + Lapatinib; first compound 0.1 µM) | relative viability (Gemcitabine + Crizotinib; first compound 0.001 µM) | relative viability (Gemcitabine + Crizotinib; first compound 0.003162 µM) | relative viability (Gemcitabine + Crizotinib; first compound 0.01 µM) | relative viability (Gemcitabine + Crizotinib; first compound 0.03162 µM) | relative viability (Gemcitabine + Crizotinib; first compound 0.1 µM) | relative viability (Gemcitabine + Dasatinib; first compound 0.001 µM) | relative viability (Gemcitabine + Dasatinib; first compound 0.003162 µM) | relative viability (Gemcitabine + Dasatinib; first compound 0.01 µM) | relative viability (Gemcitabine + Dasatinib; first compound 0.03162 µM) | relative viability (Gemcitabine + Dasatinib; first compound 0.1 µM) | relative viability (Gemcitabine + Pemetrexed; first compound 0.001 µM) | relative viability (Gemcitabine + Pemetrexed; first compound 0.003162 µM) | relative viability (Gemcitabine + Pemetrexed; first compound 0.01 µM) | relative viability (Gemcitabine + Pemetrexed; first compound 0.03162 µM) | relative viability (Gemcitabine + Pemetrexed; first compound 0.1 µM)
1 | NCI-H1437 | 0.828 | 0.737 | 0.402 | 0.157 | 0.0977 | 1.07 | 0.863 | 0.617 | 0.162 | 0.121 | 0.392 | 0.274 | 0.285 | 0.139 | 0.107 | 0.285 | 0.325 | 0.27 | 0.276 | 0.254
2 | NCI-H2085 | 0.811 | 0.811 | 0.668 | 0.434 | 0.302 | 0.74 | 0.828 | 0.699 | 0.585 | 0.4 | 0.221 | 0.232 | 0.287 | 0.206 | 0.158 | 0.94 | 0.882 | 0.827 | 0.772 | 0.406
3 | H3255 | 0.223 | 0.235 | 0.221 | 0.138 | 0.159 | 0.97 | 0.439 | 0.63 | 0.167 | 0.176 | 0.333 | 0.38 | 0.349 | 0.225 | 0.296 | 0.565 | 0.519 | 0.591 | 0.335 | 0.224
4 | NCI-H650 | 0.606 | 0.269 | 0.299 | 0.149 | 0.161 | 0.578 | 0.322 | 0.176 | 0.177 | 0.167 | 0.428 | 0.329 | 0.228 | 0.149 | 0.157 | 0.865 | 0.555 | 0.222 | 0.128 | 0.12
5 | LOU-NH91 | 0.733 | 0.72 | 0.479 | 0.267 | 0.276 | 0.715 | 0.594 | 0.451 | 0.286 | 0.271 | 0.545 | 0.28 | 0.455 | 0.244 | 0.242 | 0.397 | 0.413 | 0.441 | 0.269 | 0.286
